pIC50: −log10 of the molar value.
Columns and labels:
[1] = Cytotoxicity against human UACC257 cells assessed as cell growth at 10^-8 M after 24 hrs by SRB assay; format: functional; conditions: UACC-257, 24 h, read-out: Activity
[2] = Cytotoxicity against human SF268 cells after 24 hrs by SRB assay; format: functional; conditions: SF-268, 24 h
[3] = Cytotoxicity against human OVCAR8 cells assessed as cell growth at 10^-4 M after 24 hrs by SRB assay; format: functional; conditions: OVCAR-8, 24 h, read-out: Activity
SN12C [4] = test: Cytotoxicity against human SN12C cells after 24 hrs by SRB assay; format: functional
[5] = Cytotoxicity against human SF539 cells assessed as cell growth at 10^-5 M after 24 hrs by SRB assay; format: functional; conditions: SF-539, 24 h, read-out: Activity
MDA-MB-435 [6] = test: Cytotoxicity against human MDA-MB-435 cells assessed as cell growth at 10^-6 M after 24 hrs by SRB assay; format: functional; conditions: MDA-MB-435, 24 h, read-out: Activity
NCI-H23 = test: Cytotoxicity against human NCI-H23 cells assessed as cell growth at 10^-6 M after 24 hrs by SRB assay; format: functional; conditions: NCI-H23, 24 h, read-out: Activity
SN12C [7] = test: Cytotoxicity against human SN12C cells assessed as cell growth at 10^-6 M after 24 hrs by SRB assay; format: functional; conditions: read-out: Activity
[8] = Cytotoxicity against human UACC62 cells assessed as cell growth at 10^-7 M after 24 hrs by SRB assay; format: functional; conditions: UACC-62, 24 h, read-out: Activity
SK-MEL-28 = test: Cytotoxicity against human SK-MEL-28 cells assessed as cell growth at 10^-7 M after 24 hrs by SRB assay; format: functional; conditions: SK-MEL-28, 24 h, read-out: Activity
[9] = Cytotoxicity against human TK10 cells assessed as cell growth at 10^-8 M after 24 hrs by SRB assay; format: functional; conditions: TK-10, 24 h, read-out: Activity
[10] = Cytotoxicity against human Caki1 cells assessed as cell growth at 10^-4 M after 24 hrs by SRB assay; format: functional; conditions: CAKI-1, 24 h, read-out: Activity
[11] = Cytotoxicity against human MOLT4 cells assessed as cell growth at 10^-7 M after 24 hrs by SRB assay; format: functional; conditions: MOLT-4, 24 h, read-out: Activity
[12] = Cytotoxicity against human HL-60(TB) cells assessed as cell growth at 10^-8 M after 24 hrs by SRB assay; format: functional; conditions: HL-60, 24 h, read-out: Activity
EKVX = test: Cytotoxicity against human EKVX cells after 24 hrs by SRB assay; format: functional
NCI-H460 = test: Cytotoxicity against human NCI-H460 cells assessed as cell growth at 10^-7 M after 24 hrs by SRB assay; format: functional; conditions: NCI-H460, 24 h, read-out: Activity
[13] = Cytotoxicity against human HOP92 cells assessed as cell growth at 10^-7 M after 24 hrs by SRB assay; format: functional; conditions: HOP-92, 24 h, read-out: Activity
[14] = Cytotoxicity against human RXF393 cells assessed as cell growth at 10^-7 M after 24 hrs by SRB assay; format: functional; conditions: RXF 393, 24 h, read-out: Activity
KM12 = test: Cytotoxicity against human KM12 cells assessed as cell growth at 10^-4 M after 24 hrs by SRB assay; format: functional; conditions: KM12, 24 h, read-out: Activity
[15] = Cytotoxicity against human SNB19 cells assessed as cell growth at 10^-4 M after 24 hrs by SRB assay; format: functional; conditions: SNB-19, 24 h, read-out: Activity
[16] = Cytotoxicity against human Hs 578T cells assessed as cell growth at 10^-6 M after 24 hrs by SRB assay; format: functional; conditions: read-out: Activity
[17] = Cytotoxicity against human Hs 578T cells assessed as cell growth at 10^-5 M after 24 hrs by SRB assay; format: functional; conditions: read-out: Activity
HT-29 = test: Cytotoxicity against human HT-29 cells after 24 hrs by SRB assay; format: functional; conditions: HT-29, 24 h
MDA-MB-231 = test: Cytotoxicity against human MDA-MB-231 cells assessed as cell growth at 10^-5 M after 24 hrs by SRB assay; format: functional; conditions: MDA-MB-231, 24 h, read-out: Activity
[18] = Cytotoxicity against human UACC62 cells after 24 hrs by SRB assay; format: functional, cell-based; conditions: UACC-62, 24 h
SK-MEL-5 [19] = test: Cytotoxicity against human SK-MEL-5 cells assessed as cell growth at 10^-4 M after 24 hrs by SRB assay; format: functional; conditions: SK-MEL-5, 24 h, read-out: Activity
MDA-MB-435 [20] = test: Cytotoxicity against human MDA-MB-435 cells assessed as cell growth at 10^-7 M after 24 hrs by SRB assay; format: functional; conditions: MDA-MB-435, 24 h, read-out: Activity
[21] = Cytotoxicity against human Caki1 cells assessed as cell growth at 10^-8 M after 24 hrs by SRB assay; format: functional; conditions: CAKI-1, 24 h, read-out: Activity
SK-MEL-5 [22] = test: Cytotoxicity against human SK-MEL-5 cells after 24 hrs by SRB assay; format: functional, cell-based; conditions: SK-MEL-5, 24 h
U-251 = test: Cytotoxicity against human U251 cells assessed as cell growth at 10^-7 M after 24 hrs by SRB assay; format: functional; conditions: U-251, 24 h, read-out: Activity
ACHN [23] = test: Cytotoxicity against human ACHN cells assessed as cell growth at 10^-6 M after 24 hrs by SRB assay; format: functional; conditions: read-out: Activity
MCF7 = test: Cytotoxicity against human MCF7 cells assessed as cell growth at 10^-8 M after 24 hrs by SRB assay; format: functional; conditions: MCF7, 24 h, read-out: Activity
ACHN [24] = test: Cytotoxicity against human ACHN cells assessed as cell growth at 10^-8 M after 24 hrs by SRB assay; format: functional; conditions: read-out: Activity
[25] = Cytotoxicity against human SNB19 cells assessed as cell growth at 10^-5 M after 24 hrs by SRB assay; format: functional; conditions: SNB-19, 24 h, read-out: Activity
[26] = read-out: LC50 (the source's name)
[27] = read-out: pLC50 (the source's name) (converted)

SMILES: O=C(Nc1cc(-c2cccnc2)nc(NCCCN2CCOCC2)n1)c1cc(Br)cc(C(F)(F)F)c1
- growth at 0.01 µM [1]: 92%
- GI50 ([2]; read-out: GI50): 2.63 µM
- CC50 [2, 26]: 37.8 µM
- TGI ([2]; read-out: TGI): 10.4 µM
- GI50 ([2]; read-out: pGI50 (converted)): 2.63 µM
- CC50 [2, 27]: 38 µM
- TGI ([2]; read-out: pTGI (converted)): 10.5 µM
- growth at 100 µM [3]: -79%
- GI50 (SN12C [4]; read-out: GI50): 7.74 µM
- CC50 (SN12C [4]; [26]): 53.5 µM
- TGI (SN12C [4]; read-out: TGI): 21.8 µM
- GI50 (SN12C [4]; read-out: pGI50 (converted)): 7.76 µM
- CC50 (SN12C [4]; [27]): 53.7 µM
- TGI (SN12C [4]; read-out: pTGI (converted)): 22.4 µM
- growth at 10 µM [5]: -73%
- growth at 1 µM (MDA-MB-435 [6]): 90%
- growth at 1 µM (NCI-H23): 89%
- growth at 1 µM (SN12C [7]): 101%
- growth at 0.1 µM [8]: 90%
- growth at 0.1 µM (SK-MEL-28): 91%
- growth at 0.01 µM [9]: 91%
- growth at 100 µM [10]: -100%
- growth at 0.1 µM [11]: 95%
- growth at 0.01 µM [12]: 100%
- GI50 (EKVX; read-out: GI50): 2.72 µM
- CC50 (EKVX; [26]): 42.7 µM
- TGI (EKVX; read-out: TGI): 14.4 µM
- GI50 (EKVX; read-out: pGI50 (converted)): 2.69 µM
- CC50 (EKVX; [27]): 42.7 µM
- TGI (EKVX; read-out: pTGI (converted)): 14.5 µM
- growth at 0.1 µM (NCI-H460): 100%
- growth at 0.1 µM [13]: 80%
- growth at 0.1 µM [14]: 97%
- growth at 100 µM (KM12): -90%
- growth at 100 µM [15]: -84%
- growth at 1 µM [16]: 94%
- growth at 10 µM [17]: -7%
- GI50 (HT-29; read-out: GI50): 2.12 µM
- CC50 (HT-29; [26]): 16.1 µM
- TGI (HT-29; read-out: TGI): 4.95 µM
- GI50 (HT-29; read-out: pGI50 (converted)): 2.14 µM
- CC50 (HT-29; [27]): 16.2 µM
- TGI (HT-29; read-out: pTGI (converted)): 4.9 µM
- growth at 10 µM (MDA-MB-231): -59%
- GI50 [18]: 1.95 µM
- CC50 [18, 26]: 9.92 µM
- TGI ([18]; read-out: TGI): 4.38 µM
- CC50 [18, 27]: 10 µM
- TGI ([18]; read-out: pTGI (converted)): 4.37 µM
- growth at 100 µM (SK-MEL-5 [19]): -100%
- growth at 0.1 µM (MDA-MB-435 [20]): 92%
- growth at 0.01 µM [21]: 99%
- pIC50 (SK-MEL-5 [22]): 5.79
- GI50 (SK-MEL-5 [22]; read-out: GI50): 1.64 µM
- CC50 (SK-MEL-5 [22]; [26]): 5.56 µM
- TGI (SK-MEL-5 [22]; read-out: TGI): 3.02 µM
- GI50 (SK-MEL-5 [22]; read-out: pGI50 (converted)): 1.66 µM
- CC50 (SK-MEL-5 [22]; [27]): 5.62 µM
- TGI (SK-MEL-5 [22]; read-out: pTGI (converted)): 3.02 µM
- growth at 0.1 µM (U-251): 97%
- growth at 1 µM (ACHN [23]): 92%
- growth at 0.01 µM (MCF7): 95%
- growth at 0.01 µM (ACHN [24]): 95%
- growth at 10 µM [25]: -33%
